Results taken from patent publication US20260157955A1, “DEDIFFERENTIATED PLANT CELLS OF THE GENUS PAEONIA, EXTRACTS THEREOF AND COSMETIC USES THEREOF” (L'OREAL, priority 2021, published 2026).

Assays:
Format in all cases: cell-based
Settings in all cases: 0.1 μM, 24 hours, human epidermal keratinocytes, n=2, vs control
CNFN = assay: Expression of transcripts in human keratinocytes (RT-qPCR): CNFN
Protocol: (§1) Human epidermal keratinocytes were seeded in a 24-well culture plate and cultured for 72 hours at 37° C. and 5% CO2 in culture medium with renewal of the culture medium after the first 24 hours. At the end of the incubation, the culture medium was replaced with assay medium (supplemented with 1.5 mM CaCl2) containing starting or reference material (retinoic acid) or not containing same (control), and cells were incubated for another 24 hours. All the experimental conditions were performed in n=2. At the end of the treatment, the cells were washed twice in PBS (without CaCl2, without MgCl2) and RNA extraction was carried out using TriPure Isolation Reagent® according to the manufacturer's recommendations. The relative expression of the selected markers was measured by two-step RT-qPCR. First, reverse transcription was performed with the aid of Transcriptor Reverse Transcriptase (Roche) according to the manufacturer's recommendations. Then, PCR experiments were performed using a LightCycler® 480 real-time PCR system with a SYBR®Green incorporation measurement system (Roche).

CLDN1 = assay: Expression of transcripts in human keratinocytes (RT-qPCR): CLDN1
Protocol: as §1

AQP3 = assay: Expression of transcripts in human keratinocytes (RT-qPCR): AQP3
Protocol: as §1

SPRR1A = assay: Expression of transcripts in human keratinocytes (RT-qPCR): SPRR1A
Protocol: as §1

TGM1 = assay: Expression of transcripts in human keratinocytes (RT-qPCR): TGM1
Protocol: as §1

CC1=C(/C=C/C(C)=C/C=C/C(C)=C/C(=O)O)C(C)(C)CCC1 [Retinoic acid, retinoic acid]
relative expression of CNFN (CNFN): 0.46
relative expression of CLDN1 (CLDN1): 0.85
relative expression of AQP3 (AQP3): 1.04
relative expression of SPRR1A (SPRR1A): 0.26
relative expression of TGM1 (TGM1): 0.49
